{
  "source": "patent US8188085B2",
  "about": "“Antifungal agents” (Merck Sharp & Dohme Corp., priority 2008, dated 2012)",
  "data": [
    {"molecular_target": "glucan synthase (GS) prepared from Candida albicans MY1055 (Candida albicans, UniProt O13428)", "sequence (O13428 1-1897)": "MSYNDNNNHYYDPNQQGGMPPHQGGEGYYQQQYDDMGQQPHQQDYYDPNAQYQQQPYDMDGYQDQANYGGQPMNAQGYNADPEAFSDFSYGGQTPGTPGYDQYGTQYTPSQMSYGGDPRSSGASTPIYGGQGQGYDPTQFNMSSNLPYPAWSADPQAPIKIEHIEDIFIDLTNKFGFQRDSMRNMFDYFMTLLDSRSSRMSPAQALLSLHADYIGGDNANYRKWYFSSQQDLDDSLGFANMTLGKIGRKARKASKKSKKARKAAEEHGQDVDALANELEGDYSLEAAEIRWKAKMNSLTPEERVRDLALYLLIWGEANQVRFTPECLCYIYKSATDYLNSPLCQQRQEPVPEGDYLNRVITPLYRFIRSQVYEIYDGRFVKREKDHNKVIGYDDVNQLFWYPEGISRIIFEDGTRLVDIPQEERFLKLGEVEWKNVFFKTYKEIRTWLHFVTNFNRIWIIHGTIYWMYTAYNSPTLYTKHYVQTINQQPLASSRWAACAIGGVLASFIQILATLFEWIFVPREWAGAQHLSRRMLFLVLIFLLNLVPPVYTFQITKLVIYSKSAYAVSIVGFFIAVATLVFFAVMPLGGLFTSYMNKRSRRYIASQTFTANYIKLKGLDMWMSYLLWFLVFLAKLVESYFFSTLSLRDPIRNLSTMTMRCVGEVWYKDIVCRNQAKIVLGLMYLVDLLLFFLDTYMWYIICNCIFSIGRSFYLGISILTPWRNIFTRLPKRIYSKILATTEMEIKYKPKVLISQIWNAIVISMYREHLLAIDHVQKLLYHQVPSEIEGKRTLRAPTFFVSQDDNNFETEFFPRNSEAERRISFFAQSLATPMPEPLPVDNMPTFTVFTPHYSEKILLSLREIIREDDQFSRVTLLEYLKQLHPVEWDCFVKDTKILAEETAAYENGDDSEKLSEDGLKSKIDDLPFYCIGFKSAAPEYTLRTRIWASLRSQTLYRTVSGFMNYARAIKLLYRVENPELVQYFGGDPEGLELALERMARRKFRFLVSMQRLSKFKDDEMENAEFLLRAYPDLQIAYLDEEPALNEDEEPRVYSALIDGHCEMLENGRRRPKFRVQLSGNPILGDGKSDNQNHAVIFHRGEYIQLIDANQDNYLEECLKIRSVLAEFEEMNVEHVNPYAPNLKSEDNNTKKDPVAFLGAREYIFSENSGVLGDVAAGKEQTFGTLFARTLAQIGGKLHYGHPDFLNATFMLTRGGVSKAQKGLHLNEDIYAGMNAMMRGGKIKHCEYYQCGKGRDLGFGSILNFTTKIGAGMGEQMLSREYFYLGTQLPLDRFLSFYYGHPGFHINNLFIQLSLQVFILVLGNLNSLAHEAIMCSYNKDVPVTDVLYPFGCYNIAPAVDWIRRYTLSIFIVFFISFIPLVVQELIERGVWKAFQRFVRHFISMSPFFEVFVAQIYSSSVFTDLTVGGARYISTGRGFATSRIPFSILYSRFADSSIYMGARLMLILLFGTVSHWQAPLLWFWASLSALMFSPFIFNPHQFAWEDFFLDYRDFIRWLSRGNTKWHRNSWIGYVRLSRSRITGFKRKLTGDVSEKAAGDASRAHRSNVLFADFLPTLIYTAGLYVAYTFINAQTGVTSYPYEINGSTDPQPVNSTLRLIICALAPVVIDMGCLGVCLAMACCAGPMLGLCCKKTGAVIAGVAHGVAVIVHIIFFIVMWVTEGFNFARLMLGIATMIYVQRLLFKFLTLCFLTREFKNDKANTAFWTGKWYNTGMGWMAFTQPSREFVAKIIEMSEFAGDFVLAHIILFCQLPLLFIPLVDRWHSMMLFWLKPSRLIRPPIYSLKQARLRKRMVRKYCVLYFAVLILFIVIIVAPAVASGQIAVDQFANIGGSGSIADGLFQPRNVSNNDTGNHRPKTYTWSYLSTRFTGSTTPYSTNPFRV", "assay": "Glucan synthase inhibition (polymerization assay, 96-well)", "assay_type": "biochemical", "details": "GS from C. albicans MY1055; 60 min incubation at 22° C.; read-out: Candida Albicans GS IC50 (converted)", "in_short": "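Partially purified glucan synthase from C. albicans MY1055 membranes incorporated 0.5 mM ³H-UDPG with 25 μM GTP-γ-S, HEPES pH 7.5, over 60 min at 22 °C. TCA-precipitated glucan was counted by scintillation. IC50 (ng/mL) came from sigmoidal fits of duplicate 3-fold dilution series.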", "units": {"IC50": "nM"}, "values": [
      {"compound": "CNC(=O)c1ncnn1[C@@H]1C[C@@]23COC[C@](C)([C@@H]2CC[C@H]2C3=CC[C@@]3(C)[C@H](C(=O)O)[C@@](C)([C@H](C)C(C)C)CC[C@]23C)[C@H]1OCC1(N)CCOCC1", "note": "[Example 112, (1S,4aR,6aS,7R,8R,10aR,10bR,12aR,14R,15R)-15-[(4-aminotetrahydro-2H-pyran-4-yl)methoxy]-8-[(1R)-1,2-dimethylpropyl]-14-[5-[(methylamino)carbonyl]-1H-1,2,4-triazol-1-yl]-1,6,6a,7,8,9,10,10a,10b,11,12,12a-dodecahydro-1,6a,8,10a-tetramethyl-4H-1,4a-propano-2H-phenanthro[1,2-c]pyran-7-carboxylic acid]", "IC50": 9.86},
      {"compound": "CNC(=O)c1ncnn1[C@@H]1C[C@@]23COC[C@](C)([C@@H]2CC[C@H]2C3=CC[C@@]3(C)[C@H](C(=O)O)[C@@](C)([C@H](C)C(C)C)CC[C@]23C)[C@H]1OCC1(NC)CCSCC1", "note": "[Example 116, (1S,4aR,6aS,7R,8R,10aR,10bR,12aR,14R,15R)-8-[(1R)-1,2-dimethylpropyl]-14-[5-[(methylamino)carbonyl]-1H-1,2,4-triazol-1-yl]-15-[[tetrahydro-4-(methylamino)-2H-thiopyran-4-yl]methoxy]-1,6,6a,7,8,9,10,10a,10b,11,12,12a-dodecahydro-1,6a,8,10a-tetramethyl-4H-1,4a-propano-2H-phenanthro[1,2-c]pyran-7-carboxylic acid]", "IC50": 20.3},
      {"compound": "CC(C)[C@@H](C)[C@@]1(C)CC[C@]2(C)[C@H]3CC[C@@H]4[C@@]5(COC[C@@]4(C)[C@@H](OC[C@](C)(N)C(C)C)[C@H](n4nc(N)nc4C(N)=O)C5)C3=CC[C@@]2(C)[C@@H]1C(=O)O", "note": "[Example 119, (1S,4aR,6aS,7R,8R,10aR,10bR,12aR,14R,15R)-14-[3-amino-5-(aminocarbonyl)-1H-1,2,4-triazol-1-yl]-15-[[(2R)-2-amino-2,3-dimethylbutyl]oxy]-8-[(1R)-1,2-dimethylpropyl]-1,6,6a,7,8,9,10,10a,10b,11,12,12a-dodecahydro-1,6a,8,10a-tetramethyl-4H-1,4a-propano-2H-phenanthro[1,2-c]pyran-7-carboxylic acid]", "IC50": 12.9},
      {"compound": "CC(C)[C@@H](C)[C@@]1(C)CC[C@]2(C)[C@H]3CC[C@@H]4[C@@]5(COC[C@@]4(C)[C@@H](OC[C@](C)(N)C(C)(C)C)[C@H](n4ncnc4S(N)(=O)=O)C5)C3=CC[C@@]2(C)[C@@H]1C(=O)O", "note": "[Example 123C, (1S,4aR,6aS,7R,8R,10aR,10bR,12aR,14R,15R)-14-[5-(aminosulfonyl)-1H-1,2,4-triazol-1-yl]-15-[[(2R)-2-amino-2,3,3-trimethylbutyl]oxy]-8-[(1R)-1,2-dimethylpropyl]-1,6,6a,7,8,9,10,10a,10b,11,12,12a-dodecahydro-1,6a,8,10a-tetramethyl-4H-1,4a-propano-2H-phenanthro[1,2-c]pyran-7-carboxylic acid]", "IC50": 5.46},
      {"compound": "CCCNS(=O)(=O)c1ncnn1[C@@H]1C[C@@]23COC[C@](C)([C@@H]2CC[C@H]2C3=CC[C@@]3(C)[C@H](C(=O)O)[C@@](C)([C@H](C)C(C)C)CC[C@]23C)[C@H]1OCC(N)(CC)CC", "note": "[Example 126, (1S,4aR,6aS,7R,8R,10aR,10bR,12aR,14R,15R)-15-(2-amino-2-ethylbutoxy)-8-[(1R)-1,2-dimethylpropyl]-14-[5-[(propylamino)sulfonyl]-1H-1,2,4-triazol-1-yl]-1,6,6a,7,8,9,10,10a,10b,11,12,12a-dodecahydro-1,6a,8,10a-tetramethyl-4H-1,4a-propano-2H-phenanthro[1,2-c]pyran-7-carboxylic acid]", "IC50": 34.2},
      {"compound": "CC(C)[C@@H](C)[C@@]1(C)CC[C@]2(C)[C@H]3CC[C@@H]4[C@@]5(COC[C@@]4(C)[C@@H](OC[C@](C)(N)C(C)C)[C@H](n4ncnc4C4=NCCN4)C5)C3=CC[C@@]2(C)[C@@H]1C(=O)O", "note": "[Example 128, (1S,4aR,6aS,7R,8R,10aR,10bR,12aR,14R,15R)-15-[[(2R)-2-amino-2,3-dimethylbutyl]oxy]-14-[5-(4,5-dihydro-1H-imidazol-2-yl)-1H-1,2,4-triazol-1-yl]-8-[(1R)-1,2-dimethylpropyl]-1,6,6a,7,8,9,10,10a,10b,11,12,12a-dodecahydro-1,6a,8,10a-tetramethyl-4H-1,4a-propano-2H-phenanthro[1,2-c]pyran-7-carboxylic acid]", "IC50": 8.49},
      {"compound": "CN[C@@](C)(CO[C@H]1[C@H](n2ncnc2C2=NCCCN2)C[C@@]23COC[C@]1(C)[C@@H]2CC[C@H]1C3=CC[C@@]2(C)[C@H](C(=O)O)[C@@](C)([C@H](C)C(C)C)CC[C@]12C)C(C)(C)C", "note": "[Example 136, (1S,4aR,6aS,7R,8R,10aR,10bR,12aR,14R,15R)-8-[(1R)-1,2-dimethylpropyl]-14-[5-(1,4,5,6-tetrahydro-2-pyrimidinyl)-1H-1,2,4-triazol-1-yl]-15-[[(2R)-2,3,3-trimethyl-2-(methylamino)butyl]oxy]-1,6,6a,7,8,9,10,10a,10b,11,12,12a-dodecahydro-1,6a,8,10a-tetramethyl-4H-1,4a-propano-2H-phenanthro[1,2-c]pyran-7-carboxylic acid]", "IC50": 12},
      {"compound": "CC(C)[C@@H](C)[C@@]1(C)CC[C@]2(C)[C@H]3CC[C@@H]4[C@@]5(COC[C@@]4(C)[C@@H](OC[C@](C)(N)C(C)C)[C@H](n4ncnc4-n4cncn4)C5)C3=CC[C@@]2(C)[C@@H]1C(=O)O", "note": "[Example 138, (1S,4aR,6aS,7R,8R,10aR,10bR,12aR,14R,15R)-15-[[(2R)-2-amino-2,3-dimethylbutyl]oxy]-14-[1,5′-bi-1H-1,2,4-triazol]-1′-yl-8-[(1R)-1,2-dimethylpropyl]-1,6,6a,7,8,9,10,10a,10b,11,12,12a-dodecahydro-1,6a,8,10a-tetramethyl-4H-1,4a-propano-2H-phenanthro[1,2-c]pyran-7-carboxylic acid]", "IC50": 8.5},
      {"compound": "CCS(=O)(=O)c1ncnn1[C@@H]1C[C@@]23COC[C@](C)([C@@H]2CC[C@H]2C3=CC[C@@]3(C)[C@H](C(=O)O)[C@@](C)([C@H](C)C(C)C)CC[C@]23C)[C@H]1OC[C@](C)(N)C(C)C", "note": "[Example 140, (1S,4aR,6aS,7R,8R,10aR,10bR,12aR,14R,15R)-15-[[(2R)-2-amino-2,3-dimethylbutyl]oxy]-8-[(1R)-1,2-dimethylpropyl]-14-[5-(ethylsulfonyl)-1H-1,2,4-triazol-1-yl]-1,6,6a,7,8,9,10,10a,10b,11,12,12a-dodecahydro-1,6a,8,10a-tetramethyl-4H-1,4a-propano-2H-phenanthro[1,2-c]pyran-7-carboxylic acid]", "IC50": 6.84},
      {"compound": "CC(C)[C@@H](C)[C@@]1(C)CC[C@]2(C)[C@H]3CC[C@@H]4[C@@]5(COC[C@@]4(C)[C@@H](OC[C@](C)(N)C(C)C)[C@H](n4ncnc4-c4ccoc4)C5)C3=CC[C@@]2(C)[C@@H]1C(=O)O", "note": "[Example 144, (1S,4aR,6aS,7R,8R,10aR,10bR,12aR,14R,15R)-15-[[(2R)-2-amino-2,3-dimethylbutyl]oxy]-8-[(1R)-1,2-dimethylpropyl]-14-[5-(3-furanyl)-1H-1,2,4-triazol-1-yl]-1,6,6a,7,8,9,10,10a,10b,11,12,12a-dodecahydro-1,6a,8,10a-tetramethyl-4H-1,4a-propano-2H-phenanthro[1,2-c]pyran-7-carboxylic acid]", "IC50": 8.51},
      {"compound": "CC(C)[C@@H](C)[C@@]1(C)CC[C@]2(C)[C@H]3CC[C@@H]4[C@@]5(COC[C@@]4(C)[C@@H](OC[C@](C)(N)C(C)C)[C@H](n4ncnc4N4CCOCC4)C5)C3=CC[C@@]2(C)[C@@H]1C(=O)O", "note": "[Example 148, (1S,4aR,6aS,7R,8R,10aR,10bR,12aR,14R,15R)-15-[[(2R)-2-amino-2,3-dimethylbutyl]oxy]-8-[(1R)-1,2-dimethylpropyl]-14-[5-(4-morpholinyl)-1H-1,2,4-triazol-1-yl]-1,6,6a,7,8,9,10,10a,10b,11,12,12a-dodecahydro-1,6a,8,10a-tetramethyl-4H-1,4a-propano-2H-phenanthro[1,2-c]pyran-7-carboxylic acid]", "IC50": 18},
      {"compound": "CN[C@@](C)(CO[C@H]1[C@H](n2ncnc2-c2ccccc2)C[C@@]23COC[C@]1(C)[C@@H]2CC[C@H]1C3=CC[C@@]2(C)[C@H](C(=O)O)[C@@](C)([C@H](C)C(C)C)CC[C@]12C)C(C)C", "note": "[Example 150, (1S,4aR,6aS,7R,8R,10aR,10bR,12aR,14R,15R)-15-[[(2R)-2,3-dimethyl-2-(methylamino)butyl]oxy]-8-[(1R)-1,2-dimethylpropyl]-14-(5-phenyl-1H-1,2,4-triazol-1-yl)-1,6,6a,7,8,9,10,10a,10b,11,12,12a-dodecahydro-1,6a,8,10a-tetramethyl-4H-1,4a-propano-2H-phenanthro[1,2-c]pyran-7-carboxylic acid]", "IC50": 2.74},
      {"compound": "CC(C)[C@@H](C)[C@@]1(C)CC[C@]2(C)[C@H]3CC[C@@H]4[C@@]5(COC[C@@]4(C)[C@@H](OC[C@](C)(N)C(C)C)[C@H](n4ncnc4-c4ccc6ccccc6c4)C5)C3=CC[C@@]2(C)[C@@H]1C(=O)O", "note": "[Example 158, (1S,4aR,6aS,7R,8R,10aR,10bR,12aR,14R,15R)-15-[[(2R)-2-amino-2,3-dimethylbutyl]oxy]-8-[(1R)-1,2-dimethylpropyl]-14-[5-(2-naphthalenyl)-1H-1,2,4-triazol-1-yl]-1,6,6a,7,8,9,10,10a,10b,11,12,12a-dodecahydro-1,6a,8,10a-tetramethyl-4H-1,4a-propano-2H-phenanthro[1,2-c]pyran-7-carboxylic acid]", "IC50": 20.9},
      {"compound": "CN[C@@](C)(CO[C@H]1[C@H](n2ncnc2-c2cccs2)C[C@@]23COC[C@]1(C)[C@@H]2CC[C@H]1C3=CC[C@@]2(C)[C@H](C(=O)O)[C@@](C)([C@H](C)C(C)C)CC[C@]12C)C(C)C", "note": "[Example 163, (1S,4aR,6aS,7R,8R,10aR,10bR,12aR,14R,15R)-15-[[(2R)-2,3-dimethyl-2-(methylamino)butyl]oxy]-8-[(1R)-1,2-dimethylpropyl]-14-[5-(2-thienyl)-1H-1,2,4-triazol-1-yl]-1,6,6a,7,8,9,10,10a,10b,11,12,12a-dodecahydro-1,6a,8,10a-tetramethyl-4H-1,4a-propano-2H-phenanthro[1,2-c]pyran-7-carboxylic acid]", "IC50": 6.8}
    ]}
  ]
}
